Consider one compound from patent US20190075796A1, “Increased walnut yields with brassinosteroid application” (priority 2017, published 2019).

One test deals with walnut cv. Chandler. The test is described as follows: Foliar spray field trial in a walnut orchard, cv. Chandler: fruit set and nut weights. The format is in vivo. The protocol:
(§1) Testing was conducted in two contiguous walnut orchards located in Pirque, Metropolitan Region of Chile. The first orchard is of cultivar Serr, planted at 11×11 m and 20 years old. The second orchard is of cultivar Chandler, planted at 7×6 m and 5 years old. In the 2014/2015 season yield of cultivar Serr was 4,300 kilograms of walnuts in shells per hectare, and in cultivar Chandler the yield was 2,300 kilograms of walnuts in shells per hectare.
(§2) During the 2014/2015 season, four experimental and one control treatments were applied to the Pirque orchard. Treatments were foliar sprays with solutions of Homobrassinolide (HBR) at 0.4, 4.0 and 20 ppm, and HBR 4.0 ppm+CPPU 10 ppm. Control was water. Treatment of each cultivar took place 10 days after said cultivar reached approximately 10% pistillate flower receptive. Each tree was sprayed with approximately 250 ml of solution. At that volume the sprayed leaves and branches are wetted and excess solution is dripping off the tree. Applications were made to small branches having 2 to 4 terminal buds with pistillate flowers, equivalent to 3 to 12 potential fruits per replication. The experimental design was randomized blocks with 10 replications. Ten trees per cultivar received treatment and all treatments were applied to separate spray targets of each tree. The spray targets included pistillate flowers, catkins and leaves.
Walnut flowering of both cultivars in the season was prolonged and irregular, extending for 2 weeks in each cultivar. Bloom was mainly protandrous with catkins fall of 20-30% during the pistillate flowering period for both cultivars. The vegetative growth was normal. When flowering of cv. Serr reached 10 to 20% of receptivity, Aminoethoxy vinyl-glycine was applied at a concentration of 125 ppm to all conditions to delay ripening.
The measurement of fruit set was determined by the difference between the number of fruit harvested and the number of flowers/fruitlets sprayed in late flowering. After harvest, the nuts from the experiment were dried in laboratory at a temperature of 35° C. for 12 hours, and then the nut shell was removed, measuring the weight of both (in shell and shelled) independently.

A further test deals with pollen of cv. Chandler. The test is described as follows: In vitro pollen germination and pollen tube growth. In kind it is cell-based, walnut. The note with it: 20° C. The protocol:
An in vitro experiment was done to study the effects of the same treatments as Study 1 on pollen of cv. Chandler. The growing media used for pollen germination and tube growth was prepared in Petri dishes, and consisted of a solution of 10% sucrose and 1% agar in 50 mg per liter boric acid, plus either 0.4 ppm HBR, 4.0 ppm HBR, 20 ppm HBR, or 4.0 ppm HBR+10 pm CPPU. The control solution was distilled water. The experimental design was randomized with 4 replications, using Petri dishes as experimental units. Chandler pollen was sown onto the media with a fine brush, and incubated in a growth chamber for 24 hours at 20° C. Observations of pollen germination were done after 12 hours and pollen tube growth after 24 hours respectively. An Olympus CX31 microscope at 40× was used, and photographs were taken with a ProgRes® C3 camera, using the Capture-Pro computational program. The percentage of germination was determined using the GSA Image Analyzer 3.6.5 program, and the pollen tube length with the Qcad program. FIG. 11 is a representative 20× photomicrograph of germinating Chandler pollen.

A further test concerns walnut cv. Serr. Kind of test: Foliar spray field trial in a walnut orchard, cv. Serr: fruit set and nut weights. The format is in vivo. As to conditions: all treatments of HBR except HBR 0.4 ppm. The protocol:
as §1
as §2, with “Ten trees per cultivar received treatment and all treatments were applied to separate spray targets of each tree. The spray targets included pistillate flowers, catkins and leaves.” left out
The measurement of fruit set was determined by the difference between the number of fruit harvested and the number of flowers/fruitlets sprayed in late flowering. […]

Consider `CC[C@@H](C(C)C)C(O)C(O)[C@@H](C)[C@H]1CC[C@H]2[C@@H]3COC(=O)[C@H]4C[C@H](O)[C@H](O)C[C@]4(C)[C@H]3CC[C@]12C` (stereo in doubt) [HBR, homobrassinolide], for which the entries for the “fruit set, increase with respect to the control” value in the test with walnut cv. Chandler (HBR 0.4 ppm), in the test on walnut cv. Chandler (HBR 4.0 ppm) and with walnut cv. Chandler (HBR 20 ppm) were 6.2%, 5.0% and 13.5%, respectively. Also, the “final weight of walnuts in shell, increase over control” value in the test with walnut cv. Chandler (HBR 4.0 ppm) is 16.9%; in the test on walnut cv. Chandler (HBR 20 ppm) it was 29.6%. Moreover, the “pollen germination versus control” value is on record as “less than control” in the test with pollen of cv. Chandler (0.4 ppm HBR in medium, observed after 12 hours) and “similar” in the test with pollen of cv. Chandler (4.0 ppm HBR in medium, observed after 12 hours). In the test on pollen of cv. Chandler (4.0 ppm HBR in medium, observed after 24 hours), the “pollen tube growth versus control” value is “greater than control”. The pollen germination result in the test with pollen of cv. Chandler (20 ppm HBR in medium, observed after 12 hours) was “no germination”. Besides, in the test on walnut cv. Serr, the “final weight of shelled walnuts versus control” value is reported as “greater than control”.
